Measurements from PubChem BioAssay (NCI).
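The compound was tested at five concentrations on cells cultured in 96-well plates, with a 48-hour exposure period. The concentration for full growth arrest is given as TGI.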 Where a SMILES comes first, the peptide text is derived from it. The star is where a group is joined. Fmoc = O=C(OCC1c2ccccc2-c2ccccc21)*; OBn = c1ccc(CO*)cc1; tBu = CC(C)(C)*

What was measured:
Assay in all cases: DTP human tumour cell line panel, 48 h
A498 renal = test system: A498 renal
HCT-116 colon = test system: HCT-116 colon
HT29 colon = test system: HT29 colon
K-562 leukemia = test system: K-562 leukemia
LOX IMVI melanoma = test system: LOX IMVI melanoma
MALME-3M melanoma = test system: MALME-3M melanoma
MDA-MB-231 breast = test system: MDA-MB-231 breast
MOLT-4 leukemia = test system: MOLT-4 leukemia
NCI/ADR-RES ovarian = test system: NCI/ADR-RES ovarian

Compound	TGI (A498 renal) [µM]	TGI (HCT-116 colon) [µM]	TGI (HT29 colon) [µM]	TGI (K-562 leukemia) [µM]	TGI (LOX IMVI melanoma) [µM]	TGI (MALME-3M melanoma) [µM]	TGI (MDA-MB-231 breast) [µM]	TGI (MOLT-4 leukemia) [µM]	TGI (NCI/ADR-RES ovarian) [µM]
Clc1ccc(-c2nn3c(COc4ccc(OCc5nnc6sc(-c7ccc(Cl)cc7)nn56)c(Cl)c4)nnc3s2)cc1	71.1	> 100	36.7	> 100	35.6	> 100	> 100	> 100	> 100
Nc1ccc2c3c1cccc3c(=O)n1c3ccc(Cc4ccc5c(c4)nc4c6ccc(N)c7cccc(c(=O)n54)c76)cc3nc21	> 100	> 100	> 100	> 100	> 100	> 100	> 100	> 100	> 100
CC(=O)N1CN2C(=O)CCC2c2cc(C)ccc21 (stereo unspecified)	> 100	> 100	> 100	> 100	> 100	> 100	> 100	> 100	> 100
CN(C)CCCNC(=O)N/N=C/c1ccccn1	> 10	> 10	> 10	> 10	> 10	> 10	> 10	> 10	> 10
c1ccc(CN2CCC(CNc3ncnc4ccccc34)C2)cc1 (stereo unspecified)	> 100	> 100	> 100	> 100	> 100	43	> 100	> 100	> 100
CC(OC(C)(C)C)C(NC(=O)OCC1c2ccccc2-c2ccccc21)C(=O)NC(Cc1ccccc1)C(=O)OCc1ccccc1 (stereo unspecified) (Fmoc-Thr(tBu)-Phe-OBn; configuration not given here)	> 100	> 100	> 100	> 100	> 100	> 100	> 100	> 100	> 100
CC(C)(C)c1cc(C(C)(C)C)c2sc(=O)oc2c1O	27.3	29.8	33.2	30.4	27.7	30.2	33.4	> 100	30.1
O=C(c1ccccc1)C1C(c2ccccc2[N+](=O)[O-])N1C1CCCCC1 (stereo unspecified)	30.5	8.6	16.4	8.06	5.18	29.4	23	7.79	> 85.2
CCOC1OC(C)(C=C(C#N)C#N)CCC1C (stereo unspecified)	51	> 100	> 93.9	56.8	> 75.8	> 100	> 100	> 100	> 88.7
